Consider 3 compounds from article PMC10376999 (Biomedicines, 2023).

Where “and” joins values, the source holds several entries; their conditions need not be identical. Identical values can stand only once. Like-named read-outs stand apart in the source and are kept apart here.

Data set [1] deals with RPTEC/TERT1 artificial tubular barrier. To be noted: human.
Method: (§1) Experiments were performed using an immortalized human renal proximal tubular epithelial cell line (RPTEC/TERT1) [21], which was supplied by Evercyte GmbH (Vienna, Austria). […] To bring these cells into culture 0.6 × 10^5 cells were seeded onto 24-well plates Thincert Transwell inserts (0.33 cm^2, 0.4 µm pore size; Greiner Bio-one) and further cultured in ProxUp Basal Medium (Evercyte, Austria). The cells were cultured on Thincert inserts (Greiner Bio-one, Frickenhausen, Germany) for at least 8 days to ensure the formation of a confluent cell monolayer. The cell layer integrity was confirmed by measuring the trans-epithelial electrical resistance (TEER) with an epithelial volt-ohm-meter (EVOM, Millicel, Darmstadt, Germany). Transwell inserts were used for transport experiments when TEER values exceeded 150 Ω × cm^2.
(§2) The transport of R123 and HSA-647 across the tubular barrier was carried out under static and dynamic cultivation conditions. The static conditions were carried out by placing the Transwell^TM inserts on a well plate, with no pressure or flow applied.
(§3) Fluorescence intensity at the beginning and end of the experiments was measured using a microplate reader (Tecan Infinite Pro, Tecan Group, Switzerland), and a miniaturized fluorescence reader (Fluo Sens Integrated, Qiagen, Hilden, Germany) was used for online monitoring. […] Using the calibration curves, the fluorescent intensity (FU) results were converted to concentration (µM).
(§4) During the transport assays, the decrease in the fluorescence intensity in the artificial microfluidic channels mimicking the peritubular capillary structures (in the well, see Figure 2; compartment 7) was measured constantly. R123 (2 μM) and HSA-647 (0.6 µM) were added to the cell culture medium and to the microfluidic channel (Figure 2), and a Transwell insert populated with cells (compartment 4 in Figure 2).
(§5) The whole system was then placed on the Qiagen fluorescence meter in such a way that only the fluorescence signal of the cell culture medium in the channels (compartment 1 in Figure 2) was measured every 120 s for maximum 48 h. Cell-free Transwell^TM inserts were used as a control. Transport assay experiments for each condition were performed and measured in triplicates.
In data set [2] the test system is MDR1. The settings on record: cited from earlier work.
The next data set concerns OAT1. Set-up: method as in PMID 23140242, PMID 22470447. To be noted: OAT1-mediated transport, Michaelis–Menten model; cited from earlier work.
The target of data set [3] is MDR1 (Homo sapiens, UniProt P08183). Put plainly: Kinetic characterization (Hill fit) of MDR1-mediated R123 transport above the artificial tubular barrier.
From the text: (3) V=Vmax[S]^n/Km^n+[S]^n
(§6) In this equation, V is the substrate transport velocity in static conditions, [S] is the substrate (R123) concentration, Vmax is the maximum velocity of R123 transport, Km is Michaelis–Menten constant, and n is the Hill slope or degree, which usually explains the cooperative behavior in substance transport. It should be noted that, in this definition, Km = [S] when V = 0.5 Vmax.
(§7) It is assumed that when the inhibitor is present, any R123 molecule that passed through the membrane passed by means of passive transport [29]. […] (R123 concentration) curve was plotted (Figure 8) using online monitoring results, providing the R123 concentration.
For data set [4], the system named is RPTEC/TERT1 artificial tubular barrier. Briefly: Transport assay of R123 and HSA-647 across the artificial tubular barrier on Transwell inserts, static and in the microphysiological system (pressure, flow). The settings on record: for Concentration of R123 in the peritubular capillary after 48 h: start 2 µM.
Method: as §1, §2, §3, §4, §5
Data set [5] has as its system MDR1. Put plainly: Quantitative measurement of MDR1 expression by sandwich ELISA. It is filed as cell-based, human. To be noted: RPTECs, tariquidar 50 µg/mL, static and dynamic conditions. As for the experimental part: To measure the amount of MDR1 expressed in different conditions, a sandwich enzyme-linked immunosorbent assay (ELISA) kit for MDR1 (antibodies-online, Aachen, Germany) was used. After each experiment, lysed cells were centrifuged at 5000× g for 5 min (at 4 °C); then, the supernatant was collected for ELISA [27]. For each experimental condition, three samples were prepared, with each sample measured in duplicates.
The amount of MDR1 expressed in the cell-based artificial proximal tubule was measured by the ELISA quantitative measurement.
To confirm, we performed the Student’s t-test; there is no significant difference in the mean values of MDR1 concentration in different conditions.
Background: An ELISA detects its analyte on a solid surface through an enzyme-linked reagent.

The test system of data set [6] is MDR1. Details: method as in PMID 28487651. The settings on record: tariquidar in interaction with MDR1; read-out: KI (inhibition constant); cited from earlier work.
Data set [7] concerns COC(=O)c1ccccc1-c1c2ccc(=N)cc-2oc2cc(N)ccc12.
From the text: (3) V=Vmax[S]^n/Km^n+[S]^n
as §6, §7
Where [8] appears, read: absence of inhibitor, static, from the literature.

MDR1 (Homo sapiens, UniProt P08183), sequence (P08183 whole entry): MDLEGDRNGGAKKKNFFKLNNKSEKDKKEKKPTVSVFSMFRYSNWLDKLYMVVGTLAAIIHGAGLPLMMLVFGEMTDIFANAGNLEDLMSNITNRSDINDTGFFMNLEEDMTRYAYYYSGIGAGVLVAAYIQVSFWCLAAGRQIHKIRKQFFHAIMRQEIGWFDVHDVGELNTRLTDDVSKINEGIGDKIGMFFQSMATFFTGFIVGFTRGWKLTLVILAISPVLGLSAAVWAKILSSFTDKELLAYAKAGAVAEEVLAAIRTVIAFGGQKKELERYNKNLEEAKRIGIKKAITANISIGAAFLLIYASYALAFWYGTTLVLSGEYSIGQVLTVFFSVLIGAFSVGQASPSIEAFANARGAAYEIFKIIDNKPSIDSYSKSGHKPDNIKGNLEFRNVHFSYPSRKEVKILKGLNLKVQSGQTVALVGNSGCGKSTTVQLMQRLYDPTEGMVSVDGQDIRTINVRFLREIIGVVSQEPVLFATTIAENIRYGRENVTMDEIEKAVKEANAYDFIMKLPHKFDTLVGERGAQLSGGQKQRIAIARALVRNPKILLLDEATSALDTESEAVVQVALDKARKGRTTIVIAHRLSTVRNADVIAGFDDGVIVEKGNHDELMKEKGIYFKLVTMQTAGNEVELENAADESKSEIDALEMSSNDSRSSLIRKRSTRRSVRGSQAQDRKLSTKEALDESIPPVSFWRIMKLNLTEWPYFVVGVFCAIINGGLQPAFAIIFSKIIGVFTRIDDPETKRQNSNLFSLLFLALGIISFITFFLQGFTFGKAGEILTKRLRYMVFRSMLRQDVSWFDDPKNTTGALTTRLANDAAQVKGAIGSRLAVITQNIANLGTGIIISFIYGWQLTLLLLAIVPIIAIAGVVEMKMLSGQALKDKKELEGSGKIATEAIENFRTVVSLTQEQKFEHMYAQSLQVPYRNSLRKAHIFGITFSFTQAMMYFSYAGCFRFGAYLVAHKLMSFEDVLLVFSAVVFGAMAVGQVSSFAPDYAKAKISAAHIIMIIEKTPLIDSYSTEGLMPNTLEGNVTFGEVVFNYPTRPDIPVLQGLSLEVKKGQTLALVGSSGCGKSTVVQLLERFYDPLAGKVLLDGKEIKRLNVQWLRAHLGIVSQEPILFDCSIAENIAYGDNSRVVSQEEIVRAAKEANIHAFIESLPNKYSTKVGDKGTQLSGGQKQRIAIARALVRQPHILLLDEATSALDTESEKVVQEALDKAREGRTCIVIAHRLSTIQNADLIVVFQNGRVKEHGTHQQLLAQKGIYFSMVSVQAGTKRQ

Regarding `COC(=O)c1ccccc1-c1c2ccc(=N)cc-2oc2cc(N)ccc12` [R123, Rhodamine 123], the “Passive transport of R123, JR123,F,PT, calculated from equation” value in data set [1] is given as 0.026 pmol/min. Besides, in data set [1], the “Passive transport of R123, JR123,P,PT, calculated from equation” value was 0.0102 pmol/min. The “Passive permeability P” value in data set [1] (2 µM) was 1.5e-08 L/min. Further, in data set [1] (2 µM), the “Rdiffflow (effect of flow on total transport compared to static)” value was 0.0434 pmol/min. Also, the “Rdiffpressure (effect of pressure on total transport compared to static)” value in data set [1] (2 µM) stood at 0.0009 pmol/min. Also, the “Total transport rate of R123, JR123flow” value in data set [1] (2 µM) was 0.112 pmol/min. Besides, in data set [1] (2 µM), the “Total transport rate of R123, JR123pressure” value is 0.069 pmol/min. Besides, the “Total transport rate of R123, JR123static” value in data set [1] (2 µM) was 0.068 pmol/min. Moreover, the “Sieving coefficient θ” value in data set [1] (48 h, 2 µM) was 0.22. Besides, the Km (in general, the substrate concentration at which the rate is half of its maximum) was 17.5 ± 2.8 µM in the data set on MDR1 [2] (MDR1-mediated transport, Michaelis–Menten model); around 17.5 µM with MDR1 [2] (setting [8]); around 17.5 µM with MDR1 [2] (presence of inhibitor (non-competitive, Km unchanged), static, from the literature); 0.3 ± 0.1 µM with OAT1. Besides, the maximal velocity (Vmax) (in general, the rate approached at saturating substrate) with MDR1 [2] (setting [8]) was 0.0525 pmol/min and 0.0525 [22] pmol/min. The “n (Hill slope)” value was 2 [22, 28] with MDR1 [2] (presence of inhibitor, static, from the literature); 2 on MDR1 [3] (absence of inhibitor, static, present study); 2 on MDR1 [3] (presence of tariquidar, static, present study). Besides, at MDR1 [3] (0.13 µL/s flow, total minus passive transport rate), the “Active transport rate of R123, JR123AT,flow” value is given as 0.048 pmol/min. Moreover, the “Active transport rate of R123, JR123AT,pressure” value on MDR1 [3] (5 mbar pressure, total minus passive transport rate) was determined as 0.042 pmol/min. The “V'max” value at MDR1 [3] (presence of tariquidar, static, calculated from Vmax/(1+[I]/KI) with literature KI = 0.32 nM (ref 32)) is 2.18 × 10^−7 pmol/min and 2.18 × 10^−7 (from Equation (3)) [32] pmol/min; at MDR1 [3] (presence of tariquidar, static, from curve fitting, present study), 1.25 × 10^−7 ± 3 × 10^−9 pmol/min and 1.25 × 10^−7 ± 3 × 10^−9 (from curve fitting) pmol/min. For the same compound, the “Active transport rate of R123, JR123AT,static” value at MDR1 [3] (static, total minus passive transport rate) is recorded as 0.038 pmol/min. Moreover, the “Concentration of R123 in the peritubular capillary after 48 h” value worked out at 600 nM in data set [4] (0.13 µL/s flow, no tariquidar); 1100 nM in data set [4] (5 mbar pressure, no tariquidar); 1500 nM in data set [4] (static, no tariquidar); 1700 nM in data set [4] (static, tariquidar present). For the same compound, the “AVG R123 conc. In well, fluorescence endpoint after 48 hours” value in data set [4] (flow) turned out to be 0.92 µM; in data set [4] (flow inhibited), 0.25 µM; in data set [4] (pressure) it was 0.68 µM; in data set [4] (pressure inhibited) it was 0.24 µM; in data set [4] (static inhibited) it was 0.22 µM.
In the case of `COc1cc2c(cc1OC)CN(CCc1ccc(NC(=O)c3cc(OC)c(OC)cc3NC(=O)c3cnc4ccccc4c3)cc1)CC2` [tariquidar], the “Effect on the level of MDR1 protein (ELISA)” value in the data set on MDR1 [5] is “did not affect the level of MDR1 protein”. The inhibition constant (Ki) (commonly the dissociation constant of the complex between target and ligand, obtained from inhibition or displacement) in the data set on MDR1 [6] was 320 pM.
As for MDR1 (Homo sapiens), in data set [7], the Michaelis constant (Km) was 17.47 ± 8 µM.
